Experimental findings from ChEMBL document CHEMBL5325510, “Vincamine, from an antioxidant and a cerebral vasodilator to its anticancer potential” (Bioorg Med Chem, 2023) are described below.

Molecules are shown by their SMILES.

One assay concerns A549. As to the kind of experiment: Cytotoxicity against human A549 cells assessed as reduction in cell viability measured after 48 hrs by MTT assay. The settings on record: A549, 48 h. The class given is functional, cell-based. (Formazan colour is commonly taken as a measure of viable cells.)
The subject of the next assay is B16. Nature of the assay: Cytotoxicity against mouse B16 cells assessed as reduction in cell viability measured after 96 hrs by microplate reader based MTT assay. The class given is functional.
In the next assay the test system is HEp-2. As to the kind of experiment: Cytotoxicity against human HEp-2 cells assessed as reduction in cell growth. The class given is functional, cell-based.
The test system of another assay is KB. As to the kind of experiment: Cytotoxicity against human KB cells assessed as cell growth inhibition incubated for 48 hrs by MTT assay. The class given is functional, cell-based.

For `CC[C@]12CCCN3CCc4c(n(c5ccccc45)[C@@](O)(C(=O)OC)C1)[C@@H]32` [VINCAMINE], the 50% inhibitory concentration (IC50) in the assay on A549 turned out to be 310 µM; in the assay with B16, 68.9 µM; in the assay on HEp-2 it was 274 µM; with KB, 232 µM.

Usually IC50 stands for the concentration that gives 50% inhibition.
